In patent US20250320184A1 (SIRONAX LTD., priority 2022, published 2025) one finds IC50 data, which are given here for 38 molecules.

In the assay the target is T1, SARM1 (50-724) (Homo sapiens, UniProt Q6SZW1).
T1 sequence (Q6SZW1 50-724): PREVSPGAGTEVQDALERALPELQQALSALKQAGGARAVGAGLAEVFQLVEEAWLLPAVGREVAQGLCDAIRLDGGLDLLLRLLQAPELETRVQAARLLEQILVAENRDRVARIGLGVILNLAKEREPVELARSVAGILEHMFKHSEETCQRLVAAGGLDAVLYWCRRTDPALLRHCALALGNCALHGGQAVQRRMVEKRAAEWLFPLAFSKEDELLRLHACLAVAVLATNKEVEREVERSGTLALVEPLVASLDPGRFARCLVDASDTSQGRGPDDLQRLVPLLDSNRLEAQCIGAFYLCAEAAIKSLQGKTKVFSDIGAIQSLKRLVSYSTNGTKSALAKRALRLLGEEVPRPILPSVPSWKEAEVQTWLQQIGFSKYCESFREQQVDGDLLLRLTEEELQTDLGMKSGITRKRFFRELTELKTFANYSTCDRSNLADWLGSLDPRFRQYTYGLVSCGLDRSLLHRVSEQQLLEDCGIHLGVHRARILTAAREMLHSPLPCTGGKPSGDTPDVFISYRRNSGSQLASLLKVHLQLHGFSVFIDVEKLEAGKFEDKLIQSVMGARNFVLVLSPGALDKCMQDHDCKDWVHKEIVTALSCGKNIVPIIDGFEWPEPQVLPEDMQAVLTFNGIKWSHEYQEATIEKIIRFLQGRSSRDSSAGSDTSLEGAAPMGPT
The assay can be described thus: biochemical.

Protocol: An enzymatic assay was performed in a 384-well plate using Dulbecco's phosphate-buffered saline (PBS) as the reaction buffer. […] The reaction was initiated by adding a mixture of 200 μM nicotinamide mononucleotide (NMN) as activator and 100 μM NAD^+ as substrate. After 1 h of incubation at room temperature, the reaction was terminated with 10 times volume of 70% acetonitrile, then centrifuged at 3800 rpm for 10 min.

`CCCC(Nc1ccc2c(c1)C(=O)NCC2)c1cc(C)cc(F)c1` (racemic) [Example 125, 7-((1-(3-fluoro-5-methylphenyl)butyl)amino)-3,4-dihydroisoquinolin-1(2H)-one] returned an IC50 of 500 to 1000 nM. As for `CC(Nc1ccc2cn[nH]c2c1)c1nc(Cl)c(Cl)s1` (racemic) [Compound 249, N-(1-(4,5-dichlorothiazol-2-yl)ethyl)-1H-indazol-6-amine], the figure is less than 100 nM; as for `CCC(Nc1ccc2cc[nH]c(=O)c2c1)c1nccc(Cl)c1Cl` (racemic) [Example 153, 7-((1-(3,4-dichloropyridin-2-yl)propyl)amino)isoquinolin-1(2H)-one], less than 100 nM.

In turn, `O=S(=O)(Nc1cc2ccccc2cn1)c1cccc(Cl)c1Cl` [Compound 76, 2,3-dichloro-N-(isoquinolin-3-yl)benzenesulfonamide] displayed an IC50 of 100 to 500 nM. In the case of `Cc1cccc(S(=O)(=O)Nc2ccc3c(c2)C(=O)NCC3)c1C` [Compound 50, 2,3-dimethyl-N-(1-oxo-1,2,3,4-tetrahydroisoquinolin-7-yl)benzenesulfonamide] it was 100 to 500 nM. Molecule `COc1nccc2ccc(NC(C)c3c(Cl)nn(C)c3Cl)cc12` (racemic) [Compound 248, N-(1-(3,5-dichloro-1-methyl-1H-pyrazol-4-yl)ethyl)-1-methoxyisoquinolin-7-amine] came in with an IC50 of 100 to 500 nM. `Cc1c(Cl)cc(F)cc1S(=O)(=O)Nc1ccc2cc[nH]c(=O)c2c1` [Compound 45, 3-chloro-5-fluoro-2-methyl-N-(1-oxo-1,2-dihydroisoquinolin-7-yl)benzenesulfonamide] came in with an IC50 of less than 100 nM. Molecule `CC(Nc1cc(F)c2ncn(CCO)c(=O)c2c1)c1nc(Cl)c(Cl)s1` (racemic) [Compound 297, 6-((1-(4,5-dichlorothiazol-2-yl)ethyl)amino)-8-fluoro-3-(2-hydroxyethyl)quinazolin-4(3H)-one] displayed an IC50 of less than 100 nM.

Molecule `CCC(Nc1ccc2c(OC)n[nH]c(=O)c2c1)c1nc(Cl)c(Cl)s1` (racemic) [Compound 272, 7-((1-(4,5-dichlorothiazol-2-yl)propyl)amino)-4-methoxyphthalazin-1(2H)-one] gave an IC50 of less than 100 nM. Take `CC[C@@H](C(N)=O)c1ccc(N[C@@H](C)c2nc(Cl)c(Cl)s2)cc1` (single isomer, unassigned) [Compound 302C]: the IC50 lay in the range of 100 to 500 nM.

Turning to `CC(Nc1ccc2cn[nH]c(=O)c2c1)c1c(Cl)ccc(Cl)c1Cl` (racemic) [Example 198, 7-((1-(2,3,6-trichlorophenyl)ethyl)amino)phthalazin-1(2H)-one], the IC50 is less than 100 nM. In turn, `CC(Nc1ccc2cnn(C)c(=O)c2c1)c1cccc(Cl)c1Cl` (racemic) [Example 149, 7-((1-(2,3-dichlorophenyl)ethyl)amino)-2-methylphthalazin-1(2H)-one] had an IC50 of 100 to 500 nM. In the case of `Cc1c(F)cccc1S(=O)(=O)Nc1cccc(-c2ccc[nH]c2=O)c1` [Example 162, 3-fluoro-2-methyl-N-[3-(2-oxo-1,2-dihydropyridin-3-yl)phenyl]benzenesulfonamide] it was more than 1000 nM; in that of `Cc1n[nH]c(=O)c2nc(NC(C)c3c(Cl)ccc(F)c3Cl)ccc12` (racemic) [Compound 314, 2-((1-(2,6-dichloro-3-fluorophenyl)ethyl)amino)-5-methylpyrido[2,3-d]pyridazin-8(7H)-one], less than 100 nM; in that of `CC(Nc1ccc2cc[nH]c(=O)c2c1)c1nc(Cl)sc1Cl` (racemic) [Compound 190, 7-((1-(2,5-dichlorothiazol-4-yl)ethyl)amino)isoquinolin-1(2H)-one], 100 to 500 nM. As for `CC(Nc1ccc2cc[nH]c(=O)c2c1)c1cc(F)cc(F)c1Cl` (racemic) [Example 137, 7-((1-(2-chloro-3,5-difluorophenyl)ethyl)amino)isoquinolin-1(2H)-one], the IC50 is less than 100 nM. `CC(Nc1ccc2nc[nH]c(=O)c2c1)c1nc(Cl)c(Cl)s1` (centres unmarked) [Compound 202, 6-((1-(4,5-dichlorothiazol-2-yl)ethyl)amino)quinazolin-4(3H)-one] returned an IC50 of less than 100 nM. Consider `CC(Nc1ccc2nc[nH]c(=O)c2n1)c1c(Cl)ccc(F)c1Cl` (racemic) [Compound 259, 6-((1-(2,6-dichloro-3-fluorophenyl)ethyl)amino)pyrido[3,2-d]pyrimidin-4(3H)-one], for which the IC50 is less than 100 nM. In the case of `Cc1c(F)ccc(C(C)Nc2ccc3cc[nH]c(=O)c3c2)c1Cl` (racemic) [Example 192, 7-[1-(2-chloro-4-fluoro-3-methyl-phenyl)ethylamino]-2H-isoquinolin-1-one] it was less than 100 nM; in that of `CNC(=O)c1nn(C)c2ccc(NC(C)c3c(Cl)ccc(F)c3Cl)cc12` (racemic) [Compound 246, 5-((1-(2,6-dichloro-3-fluorophenyl)ethyl)amino)-N,1-dimethyl-1H-indazole-3-carboxamide], less than 100 nM. On to `O=C1NCCc2ccc(NS(=O)(=O)c3c(F)cc(F)cc3F)cc21` [Compound 38, 2,4,6-trifluoro-N-(1-oxo-3,4-dihydro-2H-isoquinolin-7-yl)benzenesulfonamide], for which the IC50 was more than 1000 nM. As for `Cn1c(C(N)=O)nc2cc(NS(=O)(=O)c3cccc(Cl)c3Cl)ccc21` [Compound 225, 5-((2,3-dichlorophenyl)sulfonamido)-1-methyl-1H-benzo[d]imidazole-2-carboxamide], the IC50 fell in the range of 100 to 500 nM. Molecule `CC(Nc1ccc2cc[nH]c(=O)c2c1)c1nn2c(c1Cl)CCC2` (racemic) [Example 221, 7-((1-(3-chloro-5,6-dihydro-4H-pyrrolo[1,2-b]pyrazol-2-yl)ethyl)amino)isoquinolin-1(2H)-one] returned an IC50 of 100 to 500 nM. As for `N#Cc1cccc2ccc(NS(=O)(=O)c3cccc(Cl)c3Cl)cc12` [Compound 85, 2,3-dichloro-N-(8-cyanonaphthalen-2-yl)benzenesulfonamide], the figure is 100 to 500 nM; as for `CC(Nc1ccc2c(c1)C(=O)N(CC(N)=O)C2(C)C)c1nc(Cl)c(Cl)s1` (single isomer, unassigned) [Compound 320], less than 100 nM; as for `CCC(Nc1ccc2nc[nH]c(=O)c2c1)c1cccc(Cl)c1Cl` (racemic) [Example 146, 6-[1-(2,3-dichlorophenyl)propylamino]-3H-quinazolin-4-one], less than 100 nM.

For the molecule `CC(Nc1ccc2c(C(F)F)n(CC(N)=O)nc2c1)c1nc(Cl)c(Cl)s1` (racemic) [Compound 355, 2-(6-((1-(4,5-dichlorothiazol-2-yl)ethyl)amino)-3-(difluoromethyl)-2H-indazol-2-yl)acetamide], the IC50 is less than 100 nM. As for `CC1(C)C(=O)N(CCCO)c2cc(NS(=O)(=O)c3cccc(Cl)c3Cl)ccc21` [Compound 273], the IC50 is less than 100 nM.

`O=C1NCCc2ccc(NS(=O)(=O)N3C[C@@H]4CC[C@H]3C4)cc21` (racemic) [Example 167, N-(1-oxo-1,2,3,4-tetrahydroisoquinolin-7-yl)-2-azabicyclo[2.2.1]heptane-2-sulfonamide] yielded an IC50 of more than 1000 nM. The molecule `Cc1n[nH]c(=O)c2cc(N[C@@H](C)c3c(Cl)ccc(F)c3Cl)ccc12` (single isomer, unassigned) [Example 237] gave an IC50 of less than 100 nM. In the case of `CC(Nc1cc(F)c2ncn(CC(N)=O)c(=O)c2c1)c1ccc(F)c(Cl)c1Cl` (racemic) [Compound 351, 2-(6-((1-(2,3-dichloro-4-fluorophenyl)ethyl)amino)-8-fluoro-4-oxoquinazolin-3(4H)-yl)acetamide] it was less than 100 nM. `O=C1NC(CO)CCc2ccc(NS(=O)(=O)c3cccc(Cl)c3Cl)cc21` (single isomer, unassigned) [Compound 304] had an IC50 of less than 100 nM. As for `Cc1n[nH]c(=O)c2cc(NC(CO)c3c(Cl)ccc(F)c3Cl)ccc12` (racemic) [Example 250, 7-[[1-(2,6-dichloro-3-fluoro-phenyl)-2-hydroxy-ethyl]amino]-4-methyl-2H-phthalazin-1-one], the figure is less than 100 nM. Molecule `Cc1cccc(C)c1S(=O)(=O)Nc1ccc2c(c1)C(=O)NCC2` [Compound 18, 2,6-dimethyl-N-(1-oxo-1,2,3,4-tetrahydroisoquinolin-7-yl)benzenesulfonamide] gave an IC50 of 500 to 1000 nM.

`CC(Nc1ccc2cc[nH]c(=O)c2c1)c1ccccc1Cl` (racemic) [Example 110, 7-((1-(2-chlorophenyl)ethyl)amino)isoquinolin-1(2H)-one] gave an IC50 of 100 to 500 nM. `O=C1NCCc2ccc(NS(=O)(=O)N3CC4CCCC4C3)cc21` (centres unmarked) [Compound 49, N-(1-oxo-3,4-dihydro-2H-isoquinolin-7-yl)-3,3a,4,5,6,6a-hexahydro-1H-cyclopenta[c]pyrrole-2-sulfonamide] yielded an IC50 of more than 1000 nM.

`CC(Nc1ccc2cc[nH]c(=O)c2c1)c1ccc(Cl)cc1` (racemic) [Example 116, 7-((1-(4-chlorophenyl)ethyl)amino)isoquinolin-1(2H)-one] registered an IC50 of more than 1000 nM. For the molecule `CC(Nc1ccc2c(c1)NC(=O)OC2(C)C)c1nc(Cl)c(Cl)s1` (racemic) [Compound 258, 7-((1-(4,5-dichlorothiazol-2-yl)ethyl)amino)-4,4-dimethyl-1,4-dihydro-2H-benzo[d][1,3]oxazin-2-one], the IC50 was less than 100 nM.
